Here are results for 4 compounds from patent publication US5756532A, “Aminomethyl-2 3 8 9-tetrahydro-7H-1 4-dioxino[2 3-E]-indol-8-ones and derivatives” (American Home Products Corporation, priority 1996, dated 1998).

One assay concerns dopamine autoreceptor. The assay is described as follows: GBL model: effect on synthesis of dopamine (inhibition of dopa accumulation). In kind it is in vivo, rat (male, Sprague-Dawley). Conditions: rat, 10 mg/kg, sc; GBL 750 mg/kg ip, NSD-1015 100 mg/kg ip. Here is the method: The effect of the compounds of the invention on the synthesis of dopamine was established by the method of Walters and Roth, Naunyn-Schmiedeberg's Arch. Pharmacol. 296:5-14, 1976, in which rats (male, Sprague-Dawley, Charles River, 200-350 g) were administered vehicle or test drug ten minutes prior to the administration of gamma butyrolactone (GBL; 750 mg/kg, ip to inhibit dopaminergic impulse flow) and 20 minutes prior to NSD-1015 (100 mg/kg, ip to prevent the conversion of dopa to dopamine). Thirty minutes after NSD-1015 all rats were decapitated and the nucleus accumbens and the striatum were removed for analysis. Following perchloric acid extraction of the tissue, the extracts were placed over alumina columns to collect and concentrate dopa and other catechols. This eluate was then subjected to HPLC analysis using electrochemical detection to quantify the levels of dopa present. Dopamine autoreceptor agonists, under the conditions used above, inhibit dopa accumulation. […]

A further assay has as its system mouse locomotor activity. Nature of the assay: Reduction of mouse locomotor activity (hypolocomotion). It is filed as in vivo, mouse (male, CF-1). Conditions: 20 min, sc, horizontal activity counts collected 10 to 20 minutes after dosing. Here is the method: The antipsychotic activity of the compounds of the invention was further established by a determination of the compounds' ability to reduce mouse locomotor activity according to the method of Martin and Bendensky, J. Pharmacol. Exp. Therap. 229: 706-711, 1984, in which mice (male, CF-1, Charles River, 20-30 g) were injected with vehicle or various doses of each drug and locomotor activity was measured for 30 minutes using automated infrared activity monitors (Omnitech-8×8 inch open field) located in a darkened room. ED50 's were calculated from the horizontal activity counts collected from 10 to 20 minutes after dosing using a nonlinear regression analysis with inverse prediction.

The next assay has as its target T1, dopamine D2 receptor (Rattus norvegicus, UniProt P61169).
T1 construct: homogenized rat striatal brain tissue; from tissue; host or cells: rat striatum (homogenate)
Nature of the assay: Affinity for the dopamine D2 receptor (3H-quinpirole, rat striatal brain tissue homogenate). In kind it is binding. Conditions: homogenized rat striatal brain tissue. The method, then: Affinity for the dopamine D2 receptor was established by a modification of the standard experimental test procedure of Seemen and Schaus, European Journal of Pharmacology 203: 105-109, 1991, wherein homogenized rat striatal brain tissue is incubated with ^3 H-quinpirole and various concentrations of test compound, filtered and washed and counted in a Betaplate scintillation counter.

T1 sequence (P61169 whole entry): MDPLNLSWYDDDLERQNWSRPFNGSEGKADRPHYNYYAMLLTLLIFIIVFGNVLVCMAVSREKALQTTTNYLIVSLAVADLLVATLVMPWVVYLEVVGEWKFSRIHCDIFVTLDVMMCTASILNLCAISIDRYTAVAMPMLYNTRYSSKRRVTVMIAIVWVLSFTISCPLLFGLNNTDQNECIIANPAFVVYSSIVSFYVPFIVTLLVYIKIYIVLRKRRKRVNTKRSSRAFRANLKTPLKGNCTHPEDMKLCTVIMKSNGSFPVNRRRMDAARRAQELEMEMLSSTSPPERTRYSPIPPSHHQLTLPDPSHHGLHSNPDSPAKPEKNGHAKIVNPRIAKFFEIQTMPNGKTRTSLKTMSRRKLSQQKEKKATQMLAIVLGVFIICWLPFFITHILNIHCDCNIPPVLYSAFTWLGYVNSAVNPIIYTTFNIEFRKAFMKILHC

Turning to `O=C1Cc2c(ccc3c2O[C@@H](CNCc2ccccc2)CO3)N1` [Example 1], the “inhibition of dopa accumulation” value in the assay on dopamine autoreceptor was 67.5%. Moreover, in the assay on mouse locomotor activity, the ED50 – broadly, the dose at which the effect has come halfway, by size or by number of responders – was 0.0031 mg/kg. Moreover, on dopamine D2 receptor, the IC50 (commonly the point on the concentration scale where inhibition reaches its midpoint) was 0.37 nM.

In turn, `O=C1Cc2c(ccc3c2O[C@@H](CNCCCc2c[nH]c4ccccc24)CO3)N1` [Example 3, 2-{[3-(Indol-3-yl)-propylamino]-methyl}-2,3,8,9-tetrahydro-7H-1,4-dioxino-[2,3-e]indol-8-one] had an ED50 in the assay with mouse locomotor activity of 0.039 mg/kg. On dopamine D2 receptor, this compound registered an IC50 of 0.14 nM.

For the compound `O=C1Cc2c(c(F)cc3c2O[C@@H](CNCCCc2c[nH]c4ccccc24)CO3)N1` [Example 39, 6-Fluoro-2-{[3-(1H-indol-3-yl)-propylamino]-methyl}-2,3,8,9-tetrahydro-7H-1,4-dioxino[2,3-e]indol-8-one], the 50% effective dose (ED50) in the assay on mouse locomotor activity was found to be 0.064 mg/kg. In addition, the IC50 at dopamine D2 receptor was determined as 0.78 nM.

`Cc1ccc(CNC[C@H]2COc3cc(C)c4c(c3O2)CC(=O)N4)cc1` [Example 28, 2-[(4-Methyl-benzylamino)-methyl]-6-methyl-2,3,8,9-tetrahydro-7H-1,4-dioxino[2,3-e]indol-8-one]: it took a dose of 0.024 mg/kg to reach the 50% effect level in the assay with mouse locomotor activity (ED50). On dopamine D2 receptor, this compound registered an IC50 of 1.39 nM.
